Tests used:
Format in all cases: biochemical
[1] = target: T1, catalytic domain of MMP-13 enzyme (Homo sapiens, UniProt P45452); experiment: Assay for determining MMP-13 inhibition (fluorescent substrate); settings: read-out: MMP-13 Activity (IC50 MMP-13), Group
T1 construct: catalytic domain of MMP-13 enzyme (produced by Alantos or commercially available from Invitek (Berlin), Cat. # 30100812); purchased Invitek (Berlin) 30100812
Procedure: The typical assay for MMP-13 activity is carried out in assay buffer comprised of 50 mM Tris, pH 7.5, 150 mM NaCl, 5 mM CaCl2 and 0.05% Brij-35. Different concentrations of tested compounds are prepared in assay buffer in 50 μL aliquots. 10 μL of a 50 nM stock solution of catalytic domain of MMP-13 enzyme (produced by Alantos or commercially available from Invitek (Berlin), Cat. # 30100812) is added to the compound solution. The mixture of enzyme and compound in assay buffer is thoroughly mixed and incubated for 10 min at room temperature. Upon the completion of incubation, the assay is started by addition of 40 μl of a 12.5 μM stock solution of MMP-13 fluorescent substrate (Calbiochem, Cat. No. 444235). The time-dependent increase in fluorescence is measured at the 320 nm excitation and 390 nm emission by automatic plate multireader. The IC50 values are calculated from the initial reaction rates.

activated MMP-8 enzyme = target: T2, activated MMP-8 enzyme (Homo sapiens, UniProt P22894); experiment: Assay for determining MMP-8 inhibition (OmniMMP fluorescent substrate); settings: read-out: MMP-8 Activity (IC50 MMP-8), Group
T2 construct: purchased Calbiochem 444229
T2 sequence (P22894 101-467): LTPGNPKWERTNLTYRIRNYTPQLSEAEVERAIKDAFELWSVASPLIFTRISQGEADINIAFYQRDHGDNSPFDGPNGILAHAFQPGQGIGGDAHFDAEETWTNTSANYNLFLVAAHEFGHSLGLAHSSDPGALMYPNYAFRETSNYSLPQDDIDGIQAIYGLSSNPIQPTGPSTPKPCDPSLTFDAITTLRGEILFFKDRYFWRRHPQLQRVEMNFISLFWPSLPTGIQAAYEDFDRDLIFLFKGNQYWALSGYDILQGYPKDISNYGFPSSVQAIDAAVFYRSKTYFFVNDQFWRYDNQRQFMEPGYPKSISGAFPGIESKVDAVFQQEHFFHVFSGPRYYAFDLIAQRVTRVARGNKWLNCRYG
Procedure: The typical assay for MMP-8 activity is carried out in assay buffer comprised of 50 mM Tris, pH 7.5, 150 mM NaCl, 5 mM CaCl2 and 0.05% Brij-35. Different concentrations of tested compounds are prepared in assay buffer in 50 μL aliquots. 10 μL of a 50 nM stock solution of activated MMP-8 enzyme (Calbiochem, Cat. No. 444229) is added to the compound solution. The mixture of enzyme and compound in assay buffer is thoroughly mixed and incubated for 10 min at 37° C. Upon the completion of incubation, the assay is started by addition of 40 μL of a 10 μM stock solution of OmniMMP fluorescent substrate (Biomol, Cat. No. P-126). The time-dependent increase in fluorescence is measured at the 320 nm excitation and 390 nm emission by an automatic plate multireader at 37° C. The IC50 values are calculated from the initial reaction rates.

[2] = target: T3, catalytic domain of MMP-3 enzyme (Homo sapiens, UniProt P08254); experiment: Assay for determining MMP-3 inhibition (NFF-3 fluorescent substrate); settings: read-out: MMP-3 Activity (IC50 MMP-3), Group
T3 construct: catalytic domain of MMP-3 enzyme (Biomol, Cat. No. SE-109); purchased Biomol SE-109
T3 sequence (P08254 100-272 limits assumed): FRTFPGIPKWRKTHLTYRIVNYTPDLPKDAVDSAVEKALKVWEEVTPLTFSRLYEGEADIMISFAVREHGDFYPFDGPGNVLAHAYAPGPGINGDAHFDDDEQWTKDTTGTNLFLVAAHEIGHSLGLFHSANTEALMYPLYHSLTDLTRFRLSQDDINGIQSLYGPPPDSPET
Procedure: The typical assay for MMP-3 activity is carried out in assay buffer comprised of 50 mM MES, pH 6.0, 10 mM CaCl2 and 0.05% Brij-35. Different concentrations of tested compounds are prepared in assay buffer in 50 μL aliquots. 10 μL of a 100 nM stock solution of the catalytic domain of MMP-3 enzyme (Biomol, Cat. No. SE-109) is added to the compound solution. The mixture of enzyme and compound in assay buffer is thoroughly mixed and incubated for 10 min at room temperature. Upon the completion of incubation, the assay is started by addition of 40 μL of a 12.5 μM stock solution of NFF-3 fluorescent substrate (Calbiochem, Cat. No. 480455). The time-dependent increase in fluorescence is measured at the 330 nm excitation and 390 nm emission by an automatic plate multireader. The IC50 values are calculated from the initial reaction rates.

| Compound | IC50 [1] [nM] | IC50 (activated MMP-8 enzyme) [nM] | IC50 [2] [nM] |
| --- | --- | --- | --- |
| Cc1csc2nc(C(=O)NCc3ccc4c(c3)CN(c3c(N)c(=O)c3=O)CC4)[nH]c(=O)c12 [2/10] | < 100 | < 250 | < 250 |
| Cc1c(Br)sc2nc(C(=O)NCc3ccc4c(c3)NC(=O)CO4)[nH]c(=O)c12 [2/11] | < 100 | < 250 | 250 to 20000 |
| O=C1COc2ccc(CNC(=O)c3nc4ccsc4c(=O)[nH]3)cc2N1 [2/20] | < 100 | 250 to 20000 | 250 to 20000 |
| O=C1COc2ccc(CNC(=O)c3nc4ccc(F)cc4c(=O)[nH]3)cc2N1 [2/23] | < 100 | < 250 | < 250 |
| O=C1COc2ccc(CNC(=O)c3nc4ccc(Cl)cc4c(=O)[nH]3)cc2N1 [2/26] | – | < 250 | < 250 |
| O=C1COc2ccc(CNC(=O)c3nc4cc(Br)ccc4c(=O)[nH]3)cc2N1 [2/39] | < 100 | < 250 | 250 to 20000 |
| Cc1sc2nc(C(=O)NCc3ccc4c(c3)NC(=O)CO4)[nH]c(=O)c2c1C [2/46] | < 100 | < 250 | 250 to 20000 |
| O=C1COc2ccc(CNC(=O)c3nc4scc(-c5cccs5)c4c(=O)[nH]3)cc2N1 [2/49] | – | 250 to 20000 | < 250 |
| Nc1c(N2CCc3ccc(CNC(=O)c4nc5scc(-c6cccs6)c5c(=O)[nH]4)cc3C2)c(=O)c1=O [2/51] | < 100 | 250 to 20000 | < 250 |
| O=C1COc2ccc(CNC(=O)c3nc4c(c(=O)[nH]3)CCCC4)cc2N1 [2/55] | < 100 | < 250 | 250 to 20000 |
| COc1ccc2nc(C(=O)NCc3ccc4c(c3)NC(=O)CO4)[nH]c(=O)c2c1 [2/71] | – | – | < 250 |
| O=C1COc2ccc(CNC(=O)c3nc4cccc(F)c4c(=O)[nH]3)cc2N1 [2/74] | < 100 | < 250 | < 250 |
| O=C1COc2ccc(CNC(=O)c3nc4scc(C(F)(F)F)c4c(=O)[nH]3)cc2N1 [2/86] | < 100 | 250 to 20000 | < 250 |
| CC(=O)NCc1ccc2nc(C(=O)NCc3ccc4c(c3)NC(=O)CO4)[nH]c(=O)c2c1 [2/91] | – | – | < 250 |
| O=C1COc2ccc(CNC(=O)c3nc4ccc(CNC(=O)c5ccccc5)cc4c(=O)[nH]3)cc2N1 [2/93] | < 100 | < 250 | 250 to 20000 |
| Nc1c(N2CCc3ccc(CNC(=O)c4nc5scc(-c6ccco6)c5c(=O)[nH]4)cc3C2)c(=O)c1=O [2/98] | < 100 | 250 to 20000 | < 250 |
| Cc1sc2nc(C(=O)NCc3ccc4c(c3)NC(=O)CO4)[nH]c(=O)c2c1-c1ccccc1 [2/105] | – | 250 to 20000 | 250 to 20000 |
| Nc1c(N2CCc3ccc(CNC(=O)c4nc5scc(-c6ccccc6)c5c(=O)[nH]4)cc3C2)c(=O)c1=O [2/110] | < 100 | 250 to 20000 | 250 to 20000 |
| Cc1nsc2nc(C(=O)NCc3ccc4c(c3)CN(c3c(N)c(=O)c3=O)CC4)[nH]c(=O)c12 [2/134] | 100 to 20000 | 250 to 20000 | < 250 |
| CN(C)C(=O)Cc1csc2nc(C(=O)NCc3ccc4c(c3)NC(=O)CO4)[nH]c(=O)c12 [2/160] | < 100 | < 250 | 250 to 20000 |

| Compound | IC50 [1] [nM] | IC50 (activated MMP-8 enzyme) [nM] | IC50 [2] [nM] |
| --- | --- | --- | --- |
| CNC(=O)C(C)c1csc2nc(C(=O)NCc3ccc4c(c3)NC(=O)CO4)[nH]c(=O)c12 (stereo not drawn) [2/183] | – | < 250 | 250 to 20000 |
| O=C1COc2ccc(CNC(=O)c3nc4scc(-c5cnccn5)c4c(=O)[nH]3)cc2N1 [2/185] | < 100 | 250 to 20000 | < 250 |
| Nc1c(N2CCc3ccc(CNC(=O)c4nc5scc(-c6cnccn6)c5c(=O)[nH]4)cc3C2)c(=O)c1=O [2/186] | < 100 | – | < 250 |
| Cc1sc2nc(C(=O)NCc3ccc4c(c3)NC(=NC#N)CO4)[nH]c(=O)c2c1C [2/221] | < 100 | < 250 | 250 to 20000 |
| O=C1COc2ccc(CNC(=O)c3nc4scc(-c5nccs5)c4c(=O)[nH]3)cc2N1 [2/265] | < 100 | 250 to 20000 | < 250 |
| O=C(Cc1csc2nc(C(=O)NCc3ccc4c(c3)NC(=O)CO4)[nH]c(=O)c12)NCS(=O)(=O)O [2/271] | < 100 | – | 250 to 20000 |
| Cc1sc2nc(C(=O)NCc3ccc4c(c3)NC(=O)CO4)[nH]c(=O)c2c1C(C)c1ccccc1 (stereo not drawn) [2/373] | < 100 | < 250 | 250 to 20000 |
| Cc1c(CC(=O)O)sc2nc(C(=O)NCc3ccc4c(c3)NC(=O)CO4)[nH]c(=O)c12 [4/12] | < 100 | – | 250 to 20000 |
| Cc1c(CC(=O)O)sc2nc(C(=O)NCc3ccc4c(c3)CN(c3c(N)c(=O)c3=O)CC4)[nH]c(=O)c12 [4/13] | < 100 | < 250 | < 250 |
| C[C@@H](NC(=O)c1ccccc1)c1ccc2nc(C(=O)NCc3ccc4c(c3)NC(=O)CO4)[nH]c(=O)c2c1 [29/1] | < 100 | < 250 | 250 to 20000 |
| O=C1COc2ccc(CNC(=O)c3nc4cccc(NCc5ccccc5)c4c(=O)[nH]3)cc2N1 [36/3] | – | – | 250 to 20000 |
| O=C1COc2ccc(CNC(=O)c3nc4[nH]ncc4c(=O)[nH]3)cc2N1 [39/13] | 100 to 20000 | – | 250 to 20000 |
| O=C1COc2ccc(CNC(=O)c3nc4ccc(Br)cc4c(=O)[nH]3)cc2N1 [Example 2/21] | < 100 | < 250 | < 250 |
| N#Cc1ccc2nc(C(=O)NCc3ccc4c(c3)NC(=O)CO4)[nH]c(=O)c2c1 [Example 9] | < 100 | < 250 | < 250 |
| CC(C)(C)OC(=O)NCc1ccc2nc(C(=O)NCc3ccc4c(c3)NC(=O)CO4)[nH]c(=O)c2c1 [Example 14] | < 100 | < 250 | 250 to 20000 |
| N#CCc1csc2nc(C(=O)NCc3ccc4c(c3)NC(=O)CO4)[nH]c(=O)c12 [Example 19] | < 100 | < 250 | < 250 |
| Cc1c(C(C)O)sc2nc(C(=O)NCc3ccc4c(c3)NC(=O)CO4)[nH]c(=O)c12 (stereo not drawn) [Example 21] | < 100 | < 250 | – |
| COc1cccc2nc(C(=O)NCc3ccc4c(c3)NC(=O)CO4)[nH]c(=O)c12 [Example 35] | < 100 | < 250 | < 250 |
| COC(=O)c1cccc2nc(C(=O)NCc3ccc4c(c3)NC(=O)CO4)[nH]c(=O)c12 [Example 36] | < 100 | 250 to 20000 | 250 to 20000 |

Reference: US7713966B2, “Heterobicyclic metalloprotease inhibitors” (Alantos Pharmaceuticals Holding, Inc., priority 2006, dated 2010)
